Experimental data reported in patent publication US8410150B2, “Inhibitors of carnitine palmitoyltransferase and treating cancer” (University Health Network, priority 2007, dated 2013).

Tests used:
Experiment in all cases: Cell growth inhibition, SRB assay
Assay type in all cases: cell-based, human
HCT-15 = settings: Homo sapiens; Colon HCT-15, 3% FBS
Protocol: (§1) Compounds were dissolved in DMSO and further diluted in cell culture medium for the experiments performed. Cells were seeded into 96-well plates with 1,500-5,000 cells/well according to cell growth rate. After 24 h, DMEM medium containing 10% FBS were changed to DMEM containing 3% FBS for cancer cells and additional 3% FBS were added into the culture medium for normal cells. The compound was added into the cell culture at the indicated concentrations, and the final concentration of DMSO was adjusted to a final concentration of 0.1%. Cells were subjected to either normoxic condition (20% O2) for 6 days or hypoxic condition (0.2% O2) for 2 days and then transferred to normoxic condition for 4 days. Cell viability was assessed by Sulforhodamine B (SRB) assay at Day 6.
(§2) Sulforhodamine B (SRB) (Sigma, Oakville, ON, Canada) is a water-soluble dye that binds to the basic amino acids of the cellular proteins. Thus, colorimetric measurement of the bound dye provides an estimate of the total protein mass that is related to the cell number. The cells were fixed in situ by gently aspirating off the culture media and adding 50 ul of cold 10% trichloroacetic Acid (TCA) per well and incubated at 4° C. for 30-60 min. The plates were washed five times with water and allowed to air dry for 5 min. 50 ul of 0.4% (w/v) SRB dissolved in 1% (v/v) acetic acid were added into each well, plates were then incubated at RT for 30 min for staining, washed four times with 1% acetic acid to remove any unbound dye and then allowed to air dry for 5 min. Stain was solubilized with 100 ul of 10 mM Tris pH 10.5 per well. Absorbance was read at 570 nm on a spectrophotometer. GI50 (compound concentration required for 50% of growth inhibition) was calculated using GraphPad Prism 4.0 software (GraphPad Software, Inc., San Diego, Calif., USA).
(§3) Cell viability of various cell lines treated with 3-carboxy-N,N,N-trimethyl-2-pentadecanamidopropan-1-aminium (“nPAC”) and compound of Examples S7, S63, S66, S90, S89, S67, S75 and S10 was also assessed in a manner as described above in Example 5.

A54 = settings: Homo sapiens; Lung A54, 3% FBS
Protocol: as §1, §2, §3

Hs578T = settings: Homo sapiens, Hs-578T; Breast Hs578T, 3% FBS
Protocol: as §1, §2, §3

SW480 = settings: Homo sapiens; Colon SW480, 3% FBS
Protocol: as §1, §2, §3

COLO-205 = settings: Homo sapiens; Colon COLO-205, 3% FBS
Protocol: as §1, §2, §3

SW620 = settings: Homo sapiens, SW-620; Colon SW620, 3% FBS
Protocol: as §1, §2, §3

Structure (SMILES) | GI50 (HCT-15) [µM] | GI50 (A54) [µM] | GI50 (Hs578T) [µM] | GI50 (SW480) [µM] | GI50 (COLO-205) [µM] | GI50 (SW620) [µM]
CCCCCCCCCCCCc1ccc(NS(=O)(=O)N[C@H](CC(=O)O)C[N+](C)(C)C)cc1 [Example S89, (R)-3-(N-(4-dodecylphenyl)sulfamoylamino)-4-(trimethylammonio)-butanoate] | 2.2 | 21 | 7.3 | 1.5 | 1.4 | 1.9
CCCCCCCCCCOc1cccc(C(=O)N[C@H](CC(=O)[O-])C[N+](C)(C)C)c1 [Example S67, (R)-3-(3-(decyloxy)benzamido)-4-(trimethylammonio)butanoate] | 14 | 88 | 17 | 0.7 | 2.7 | 5.5
CCCCCCCCCCc1ccc(C(=O)N[C@H](CC(=O)[O-])C[N+](C)(C)C)cc1 [Example S66, (R)-3-(4-decylbenzamido)-4-(trimethylammonio)butanoate] | 1.1 | 28 | 8.2 | 0.3 | 0.4 | 0.6
CCCCCCCCCCOc1ccc(C(=O)N[C@H](CC(=O)O)C[N+](C)(C)C)cc1 [Example S63, (R)-3-(4-(decyloxy)benzamido)-4-(trimethylammonio)butanoate 2,2,2-trifluoroacetate] | 0.5 | 14 | 3.7 | 0.4 | 0.3 | 0.5
CCCCCCCOc1ccc(NC(=O)N[C@H](CC(=O)[O-])C[N+](C)(C)C)cc1 [Example S10, (R)-3-(3-(4-(heptyloxy)phenyl)ureido)-4-(trimethylammonio)butanoate] | 28 | > 50 | > 50 | 9.3 | 4.6 | 19
CCCCCCCCCCCCCCc1ccc(NS(=O)(=O)N[C@H](CC(=O)O)C[N+](C)(C)C)cc1 [Example S90, (R)-3-(N-(4-tetradecylphenyl)sulfamoylamino)-4-(trimethylammonio)-butanoate] | 3.3 | 21 | 8.2 | 1.3 | 2.4 | 2.4
CCCCCCCCc1ccc(NC(=O)N[C@H](CC(=O)[O-])C[N+](C)(C)C)cc1 [Example S7, (R)-3-(3-(4-octylphenyl)ureido)-4-(trimethylammonio)butanoate] | 1.3 | 25 | 33 | 0.8 | 0.9 | 1.5
CCCCCCCCCCc1ccc(S(=O)(=O)N[C@H](CC(=O)O)C[N+](C)(C)C)cc1 [Example S75, (R)-3-carboxy-2-(4-decylphenylsulfonamido)-N,N,N-trimethylpropan-1-aminium 2,2,2-trifluoroacetate] | 5.6 | 31 | 13 | 1.9 | 3.6 | 4.1
